Calls of active or inactive are those of the source. No rule for the calls is given here.
biological target: HIV-1 integrase / human LEDGF/p75 complex; assay: inhibitors of HIV-1 IN-LEDGF/p75 DNA integration, dose response, biochemical, TR-FRET (AID 1053172)

SMILES | IC50
O=C1OC(c2cccs2)=N/C1=C/c1ccc(-c2cccc(C(=O)O)c2)o1 | inactive
CC(=O)Nc1ccc2c(COC(=O)CC3Sc4ccccc4NC3=O)cc(=O)oc2c1 (configuration not stated) | > 12.2 µM (inactive)
Oc1ccc(C=Nc2ccc(N3CCOCC3)cc2)c(O)c1 | inactive
COc1cc(/C=C/C=C2/CC/C(=C/C=C/c3ccc(O)c(OC)c3)C2=O)ccc1O | 4.93 µM
O=C(O)c1cccc(-n2cccc2/C=C/[N+](=O)[O-])c1 | 8.75 µM
COC1=CC(=O)C(C2CC(=O)c3c(O)cc(O)cc3O2)=CC1=O (configuration not stated) | > 36.5 µM (inactive)
Cc1ccc(NC(=O)CN2C(=O)N/C(=C/c3ccco3)C2=O)cc1 | > 36.5 µM (inactive)
O=S(=O)(O)c1ccc(O)c2cc(Nc3ccccc3)ccc12 | 0.723 µM
Cc1csc(NC(=O)CSc2sc3c(O)cc(=O)[nH]c3c2C#N)n1 | 9.73 µM
Nc1c(C(=O)NCC2CCCO2)sc2nc3c(c(-c4ccco4)c12)CC/C3=C\c1ccco1 (configuration not stated) | 1.35 µM
Brc1ccc(-c2nn3c(-c4ccco4)nnc3s2)o1 | inactive
NC(=O)c1ccc(N=Cc2c(O)n(Cc3ccco3)c(=O)[nH]c2=O)cc1 | inactive
O=S(=O)(O)c1cc(Cl)cc(N=Nc2ccc(O)cc2O)c1O | 9.94 µM
CSc1nc(N(CCO)CCO)c2sc3nc(-c4ccco4)c4c(c3c2n1)CCC4 | 4.85 µM
O=C(Cc1nnc(NC(=O)c2ccccc2)s1)N/N=C\c1ccc(O)c(O)c1 | 2.21 µM
O=S(=O)(O)c1cc(O)c(N=Nc2ccc(O)cc2O)c2ccccc12 | inactive
N#C/C(=C\c1ccc(O)c(O)c1)C(=O)c1ccc(O)c(O)c1 | 0.0795 µM
CN(C)c1ccc(O)c2c1CC1CC3[C@@H](N(C)C)C(=O)C(C(N)=O)=C(O)[C@]3(O)C(=O)C1=C2O (some centres not stated) | 3.74 µM
O=C(N/N=C/c1cccc(F)c1)c1cc(-c2ccco2)nc2ccccc12 | 3.85 µM
Cn1c(N)c(C(=O)COC(=O)c2cc(-c3ccco3)nc3ccccc23)c(=O)n(C)c1=O | 2.57 µM
C=C(C)C(=O)Nc1cccc(C2=NOC3(C2)C[C@H](C(N)=O)N(C(=O)/C=C/C)C3)c1 (some centres not stated) | 4.72 µM
Cc1c(O)cc2c(c1O)C(=O)CC(c1ccc(O)cc1)O2 (configuration not stated) | 9.39 µM
CN(C)c1ccc2nc3ccc(=O)cc-3sc2c1 | > 36.5 µM (inactive)
Oc1ccc(-c2cn3c(n2)SCC3)cc1O | 1.48 µM
NC(=S)NN=Cc1nccc2c(N)cccc12 | > 36.5 µM (inactive)
Cc1ccc(N2C(=O)NC(=O)/C(=C/c3ccoc3)C2=O)cc1 | 2 µM

SMILES | IC50
O=C(Cn1cnc([N+](=O)[O-])n1)c1ccc(O)c(O)c1 | inactive
CCOc1cccc(N2C(=O)/C(=C/c3ccco3)C(=O)NC2=S)c1 | 1.55 µM
COc1ccc(/C=N/NC(=O)c2cc(O)c(O)c(O)c2)cc1Cn1cc([N+](=O)[O-])cn1 | 0.689 µM
CC(=O)c1ccc2c(c1)C1C=CCC1C(C(=O)O)N2 (configuration not stated) | 0.575 µM
Oc1cccc(/C=N/NC(=S)Nc2cccnc2)c1O | inactive
Cn1cccc1CC(=O)NN=C/C=C\c1ccco1 | > 36.5 µM (inactive)
Cc1ccc(/C=C/C(=O)Nc2ccc([N+](=O)[O-])c(NC(=O)/C=C/c3ccc(C)o3)c2)o1 | inactive
O=C(CCN1CCN(c2ccccc2)CC1)N/N=C/c1ccc(O)c(O)c1O | 1.02 µM
O=C(Cc1csc(N2CCOCC2)n1)N/N=C/c1ccc(O)c(O)c1O | 0.927 µM
CCOc1ccc(Nc2ccc(N)c(S(=O)(=O)O)c2)cc1 | inactive
C[C@@H]1O[C@@H](Oc2c(-c3ccc(O)c(O)c3)oc3cc(O)cc(O)c3c2=O)[C@H](O)[C@H](O)[C@H]1O | 2.61 µM
O=C1Nc2ccccc2/C1=N\N=C\c1ccc(O)c(O)c1 | 0.696 µM
COc1ccc(C(=O)CSc2nnc(-c3ccco3)c(-c3ccco3)n2)cc1 | 6.45 µM
O=C(N/N=C/c1ccc(O)cc1O)C(=O)N/N=C/c1ccc(O)cc1O | 0.177 µM
C=C(C)C(=O)Oc1ccc(N=Nc2ccc(C)cc2)ccc1=O | 3.48 µM
COc1ccc(/C=C2\C(=O)NC(=O)c3ccccc32)cc1OC | 3.94 µM
O=[N+]([O-])c1cc(Br)c(O)c(C=Nc2ccc(N3CCOCC3)cc2)c1 | inactive
COc1ccc(NC(=O)CSc2sc3c(O)cc(=O)[nH]c3c2C#N)c(OC)c1 | inactive
Nc1nc(-c2ccco2)c(-c2ccco2)s1 | > 36.5 µM (inactive)
C(=C\c1ccco1)/c1ccc2ccccc2n1 | > 36.5 µM (inactive)
COCCN(CCOC)Cc1c(O)ccc2c1O/C(=C\c1ccc(C)o1)C2=O | > 36.5 µM (inactive)
Cc1cnc(C=NNC(N)=S)c2cccc(N)c12 | inactive
COc1ccc(N=C2NC(=O)/C(=C\C=C\c3ccco3)S2)cc1 | 8.07 µM
O=C(CCN1C(=O)/C(=C/c2ccco2)SC1=S)Nc1ccc(C(=O)O)c(O)c1 | inactive
Cc1c(CC(=O)N2CCN(C(=O)C3COc4ccccc4O3)CC2)c(=O)oc2c(O)c(O)ccc12 (configuration not stated) | 0.408 µM
O=C1c2c(O)cc(O)cc2O[C@@]12c1c(cc(O)c3c1O[C@H](c1ccc(O)cc1)[C@@H](O)C3)O[C@@H]2c1ccc(O)cc1 | inactive

Reference: PubChem BioAssay AID1053172 (The Scripps Research Institute Molecular Screening Center, 2014)
